Measured values as given in PMC10128460, “Discovery of the first-in-class potent and isoform-selective human carbonic anhydrase III inhibitors” (Journal of Enzyme Inhibition and Medicinal Chemistry, 2023).
Values joined by “and” are separate entries in the source; they are usually repeats but may differ in a detail not shown here. Equal values may be shown once. Read-outs that look alike come from different tables or passages of the source.

Assays:
hCA III [1] = molecular target: T1, hCA III (Homo sapiens, UniProt P07451); parameters: method as in PMID 23605884; conditions: HPLC assay; cited from earlier work
T1 construct: made in house
T1 sequence (P07451 whole entry): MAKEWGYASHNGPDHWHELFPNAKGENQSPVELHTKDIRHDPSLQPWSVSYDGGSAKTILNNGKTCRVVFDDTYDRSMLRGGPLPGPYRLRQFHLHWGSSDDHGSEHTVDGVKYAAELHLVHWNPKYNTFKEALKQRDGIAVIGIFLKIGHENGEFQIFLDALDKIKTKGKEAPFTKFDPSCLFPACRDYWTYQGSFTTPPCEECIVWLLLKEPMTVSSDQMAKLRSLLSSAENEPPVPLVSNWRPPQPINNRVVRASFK

hCA VB = molecular target: T2, hCA VB (Homo sapiens, UniProt Q9Y2D0); assay: Stopped-Flow CO2 hydrase assay, hCA VB; format: biochemical; conditions: mean from 3 assays, errors ± 5–10%
T2 construct: made in house
T2 sequence (Q9Y2D0 34-317): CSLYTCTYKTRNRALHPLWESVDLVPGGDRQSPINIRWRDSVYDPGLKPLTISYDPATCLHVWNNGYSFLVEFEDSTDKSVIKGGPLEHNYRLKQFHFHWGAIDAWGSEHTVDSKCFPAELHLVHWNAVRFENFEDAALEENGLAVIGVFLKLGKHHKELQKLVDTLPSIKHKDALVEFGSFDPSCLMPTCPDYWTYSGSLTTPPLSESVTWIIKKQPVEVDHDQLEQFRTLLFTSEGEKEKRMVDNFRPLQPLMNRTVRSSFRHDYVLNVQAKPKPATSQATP
Experimental: (§1) An Applied Photophysics stopped-flow instrument has been used for assaying the CA catalysed CO2 hydration activity[47]. […] The CO2 concentrations ranged from 1.7 to 17 mM for the determination of the kinetic parameters and inhibition constants. […] The uncatalysed rates were determined in the same manner and subtracted from the total observed rates. Stock solutions of inhibitor (0.1 mM) were prepared in distilled − deionized water and dilutions up to 0.01 nM were done thereafter with the assay buffer. Inhibitor and enzyme solutions were preincubated together for 15 min at room temperature before assay to allow for the formation of the E − I complex. The inhibition constants were obtained by nonlinear least-squares methods using PRISM 3 and the Cheng − Prusoff equation, as reported earlier[48]^,[49], and represent the mean from at least three different determinations. […] All hCA isoforms were recombinant ones obtained in-house as reported earlier[50].

hCA II = molecular target: T3, hCA II (Homo sapiens, UniProt P00918); assay: Stopped-Flow CO2 hydrase assay, hCA II; format: biochemical; conditions: mean from 3 assays, errors ± 5–10%
T3 construct: made in house
Experimental: as §1

hCA VII = molecular target: T4, hCA VII (Homo sapiens, UniProt P43166); assay: Stopped-Flow CO2 hydrase assay, hCA VII; format: biochemical; conditions: mean from 3 assays, errors ± 5–10%
T4 construct: made in house
T4 sequence (P43166 whole entry): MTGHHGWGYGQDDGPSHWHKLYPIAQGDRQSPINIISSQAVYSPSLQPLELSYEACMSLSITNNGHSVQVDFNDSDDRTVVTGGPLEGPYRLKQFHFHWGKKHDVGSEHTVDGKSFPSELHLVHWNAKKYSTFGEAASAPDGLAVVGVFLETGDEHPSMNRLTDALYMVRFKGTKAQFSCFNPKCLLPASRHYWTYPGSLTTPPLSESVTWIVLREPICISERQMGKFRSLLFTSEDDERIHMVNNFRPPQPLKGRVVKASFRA
Experimental: as §1

hCA VA = molecular target: T5, hCA VA (Homo sapiens, UniProt P35218); assay: Stopped-Flow CO2 hydrase assay, hCA VA; format: biochemical
T5 construct: made in house
T5 sequence (P35218 39-305): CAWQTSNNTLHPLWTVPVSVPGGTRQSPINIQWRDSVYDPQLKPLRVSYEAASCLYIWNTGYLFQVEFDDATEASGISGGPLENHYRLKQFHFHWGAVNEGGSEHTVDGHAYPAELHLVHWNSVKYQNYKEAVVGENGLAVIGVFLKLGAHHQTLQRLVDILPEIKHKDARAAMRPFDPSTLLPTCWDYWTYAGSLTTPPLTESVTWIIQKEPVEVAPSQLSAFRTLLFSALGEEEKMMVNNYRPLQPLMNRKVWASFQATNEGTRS
Experimental: as §1

hCA III [2] = molecular target: T1, hCA III; assay: Stopped-Flow CO2 hydrase assay, hCA III; format: biochemical; conditions: for Selectivity Index (SI) hCA I/hCA III: ratio of KI hCA I to KI hCA III; for Selectivity Index (SI) hCA II/hCA III: ratio of KI hCA II to KI hCA III; for Ki: stopped-flow CO2 hydrase, mean from 3 assays, errors ± 5–10%
Experimental: as §1

hCA IV = molecular target: T6, hCA IV (Homo sapiens, UniProt P22748); assay: Stopped-Flow CO2 hydrase assay, hCA IV; format: biochemical; conditions: mean from 3 assays, errors ± 5–10%
T6 construct: made in house
T6 sequence (P22748 19-312): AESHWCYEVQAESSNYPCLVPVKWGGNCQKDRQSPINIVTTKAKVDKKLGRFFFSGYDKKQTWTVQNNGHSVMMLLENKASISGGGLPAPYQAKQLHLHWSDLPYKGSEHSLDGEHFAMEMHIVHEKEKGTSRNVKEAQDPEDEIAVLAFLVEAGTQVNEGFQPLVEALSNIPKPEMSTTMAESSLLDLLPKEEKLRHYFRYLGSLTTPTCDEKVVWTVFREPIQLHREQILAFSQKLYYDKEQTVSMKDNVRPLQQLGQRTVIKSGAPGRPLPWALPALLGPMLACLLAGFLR
Experimental: as §1

hCA I = molecular target: T7, hCA I (Homo sapiens, UniProt P00915); assay: Stopped-Flow CO2 hydrase assay, hCA I; format: biochemical; conditions: mean from 3 assays, errors ± 5–10%
T7 construct: made in house
T7 sequence (P00915 whole entry): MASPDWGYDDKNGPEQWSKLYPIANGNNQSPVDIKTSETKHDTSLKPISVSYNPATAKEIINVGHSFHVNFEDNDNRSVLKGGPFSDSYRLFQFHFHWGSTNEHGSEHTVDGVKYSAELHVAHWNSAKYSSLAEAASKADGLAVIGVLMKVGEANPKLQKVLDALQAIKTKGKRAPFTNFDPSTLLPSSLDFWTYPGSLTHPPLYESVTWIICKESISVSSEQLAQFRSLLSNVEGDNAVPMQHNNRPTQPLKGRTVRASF
Experimental: as §1

hCA XII = molecular target: T8, hCA XII (Homo sapiens, UniProt O43570); assay: Stopped-Flow CO2 hydrase assay, hCA XII; format: biochemical; conditions: mean from 3 assays, errors ± 5–10%
T8 construct: made in house
T8 sequence (O43570 25-354): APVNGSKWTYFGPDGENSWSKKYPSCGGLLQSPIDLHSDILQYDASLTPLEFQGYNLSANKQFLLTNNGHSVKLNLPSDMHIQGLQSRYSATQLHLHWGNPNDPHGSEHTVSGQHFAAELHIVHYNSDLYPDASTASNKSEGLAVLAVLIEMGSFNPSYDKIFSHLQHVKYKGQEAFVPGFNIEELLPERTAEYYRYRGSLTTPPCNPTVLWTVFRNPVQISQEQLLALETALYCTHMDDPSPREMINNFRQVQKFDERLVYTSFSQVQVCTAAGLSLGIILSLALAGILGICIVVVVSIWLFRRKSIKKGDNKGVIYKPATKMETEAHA
Experimental: as §1

[3] = stopped-flow CO2 hydrase, mean from 3 assays, errors ± 5–10%, read-out: KI hCA VA

Row | Compound | Ki (hCA VB) | Ki (hCA II) | Ki (hCA VII) | Selectivity Index (SI) hCA I/hCA III (hCA III [2]) | Selectivity Index (SI) hCA II/hCA III (hCA III [2]) | Ki (hCA III [2]) | melting point | Ki (hCA IV) | Ki (hCA I) | Ki (hCA XII) | Ki (hCA VA; [3]) | Ki (hCA III [1]) | Ki (hCA VA)
1 | COc1cc(C(=O)O)ccc1O [vanillic acid] | – | – | – | – | – | – | – | – | – | – | – | 87000 nM | –
2 | NS(=O)(=O)CCCCn1cc(CNC(=O)Nc2ccc(F)cc2)nn1 [Compound 44, 4–(4-((3–(4-Fluorophenyl)ureido)methyl)-1H-1,2,3-triazol-1-yl)butane-1-sulfonamide] | 2550 nM | 7580 nM | 3350 nM | 9.0 | 12.66 and 12.7 | 599 nM | 284 to 286 °C | 2920 nM | 5380 nM | 3710 nM | – | – | 1350 nM
3 | NS(=O)(=O)CCCn1cc(COc2ccc(F)cc2)nn1 [Compound 28, 3–(4-((4-Fluorophenoxy)methyl)-1H-1,2,3-triazol-1-yl)propane-1-sulfonamide] | 2470 nM | 2030 nM | 4370 nM | 6.7 | 2.8 | 728 nM | 261 to 263 °C | > 10000 nM | 4890 nM | 2480 nM | 1030 nM | – | –

Further lines, with some results ahead:

Row | Ki (hCA VB) | Ki (hCA II) | Ki (hCA VII) | Selectivity Index (SI) hCA I/hCA III (hCA III [2]) | Selectivity Index (SI) hCA II/hCA III (hCA III [2]) | Ki (hCA III [2]) | melting point | Ki (hCA IV) | Ki (hCA I) | Ki (hCA XII) | Ki (hCA VA; [3]) | Compound | Ki (hCA III [1]) | Ki (hCA VA)
4 | 5870 nM | 2900 nM | 4570 nM | – | 3.5 | 826 nM | 249 to 252 °C | 5940 nM and 5930 nM | > 10000 nM | 1500 nM | 5700 nM | NS(=O)(=O)CCCn1cc(CNC(=O)Nc2ccc(F)cc2)nn1 [Compound 31, 3–(4-((3–(4-Fluorophenyl)ureido)methyl)-1H-1,2,3-triazol-1-yl)propane-1-sulfonamide] | – | –
5 | 1430 nM | 566 nM | 1950 nM | 13.2 | 1.15 and 1.1 | 493 nM | 259 to 261 °C | 2600 nM | 6520 nM | 2830 nM | 3820 nM | CCOC(=O)c1ccc(NC(=O)NCc2cn(CCCCS(N)(=O)=O)nn2)cc1 [Compound 47, Ethyl 4–(3-((1–(4-sulfamoylbutyl)-1H-1,2,3-triazol-4-yl)methyl)ureido)benzoate] | – | –
